Assay: Rapamycin levels in hamster cheek tissue homogenate by LC/MS
Type: in vivo, golden Syrian hamsters
Conditions: for Rapamycin assayed concentration, Average: hamster cheek pouch, all samples
Source text: Upon sacrifice of the animals, samples of both of the Hamster cheeks were obtained and frozen at −80 degrees Celsius. The samples were labeled as to the amount of intraperitoneal dose received, and whether they were right (studied with chamber) or left.

With `CO[C@H]1C[C@@H]2CC[C@@H](C)[C@@](O)(O2)C(=O)C(=O)N2CCCC[C@H]2C(=O)O[C@H]([C@H](C)C[C@@H]2CC[C@@H](O)[C@H](OC)C2)CC(=O)[C@H](C)/C=C(\C)[C@@H](O)[C@@H](OC)C(=O)[C@H](C)C[C@H](C)/C=C/C=C/C=C/1C` [rapamycin] the “average tissue level of rapamycin in the hamster cheek pouch” value (from here on “average tissue level of rapamycin”) (0.1 mg/kg treatment group) was 7.37 ng/g, the “average tissue level of rapamycin” value (0.5 mg/kg treatment group) was 11.01 ng/g and the “average tissue level of rapamycin” value (2.0 mg/kg treatment group) was 40.83 ng/g. The “average tissue level of rapamycin” value (10 mg/kg treatment group) was 55.15 ng/g, the “Rapamycin assayed concentration, Average” value (dosing 0.1 mg/kg ip) was 7.37 ng/g or pg/mg and the “Rapamycin assayed concentration, Average” value (dosing 0.5 mg/kg ip) was 11.01 ng/g or pg/mg. For the same molecule, the “Rapamycin assayed concentration, Average” value (dosing 2 mg/kg ip) was 40.83 ng/g or pg/mg and the “Rapamycin assayed concentration, Average” value (dosing 10 mg/kg ip) was 55.15 ng/g or pg/mg.
